{
  "source": "BindingDB's records for doi:10.1186/1471-2091-15-9",
  "about": "(International Centre for Genetic Engineering and …, 2014)",
  "biological_target": "T1, DNA helicase [35-727] (Plasmodium falciparum, UniProt Q8I3W6)",
  "T1 construct": "35-727",
  "T1 sequence (Q8I3W6 whole entry)": "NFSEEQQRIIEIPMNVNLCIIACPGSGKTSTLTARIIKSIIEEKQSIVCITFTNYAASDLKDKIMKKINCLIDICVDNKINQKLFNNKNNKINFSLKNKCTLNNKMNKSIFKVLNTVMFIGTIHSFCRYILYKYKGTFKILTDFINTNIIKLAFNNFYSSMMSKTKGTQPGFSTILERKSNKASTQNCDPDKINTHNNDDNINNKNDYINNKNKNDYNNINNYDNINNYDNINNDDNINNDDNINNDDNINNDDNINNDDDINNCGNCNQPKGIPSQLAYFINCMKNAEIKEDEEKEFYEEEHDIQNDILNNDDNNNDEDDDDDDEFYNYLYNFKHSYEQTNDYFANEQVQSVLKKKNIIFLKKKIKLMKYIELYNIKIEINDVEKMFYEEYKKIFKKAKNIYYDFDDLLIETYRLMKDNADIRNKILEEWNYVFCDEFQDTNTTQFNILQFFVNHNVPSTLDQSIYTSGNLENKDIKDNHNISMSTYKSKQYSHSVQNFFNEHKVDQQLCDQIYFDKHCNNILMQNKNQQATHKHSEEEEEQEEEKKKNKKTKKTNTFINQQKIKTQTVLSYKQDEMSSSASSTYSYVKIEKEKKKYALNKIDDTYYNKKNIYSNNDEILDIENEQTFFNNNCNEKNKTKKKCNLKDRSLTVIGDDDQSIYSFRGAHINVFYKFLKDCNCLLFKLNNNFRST",
  "assay": "DNA-Dependent ATPase Assay",
  "conditions": "pH 8; 37 °C",
  "method": "The hydrolysis of ATP catalyzed by PfUDN was assayed by measuring the formation of Pi from [γ-32P] ATP. The reaction mixture of 10 μl contained [γ-32P] ATP (specific activity 222 TBq. mmol^−1) and cold ATP (1 mM), ATPase buffer (20 mM Tris-HCl, pH 8.0, 8 mM DTT, 1.0 mM MgCl2, 20 mM KCl and 16 μg/ml BSA), purified PfUDN and 50 ng or 100 ng of M13 mp19 ssDNA. The reaction mixtures were incubated at 37°C for 60 min.",
  "note": "pIC50: −log10 of the molar value. Where a name gives a salt, the structure may show the parent alone.",
  "data": [
    {"smiles": "CC[n+]1c(-c2ccccc2)c2cc(N)ccc2c2ccc(N)cc21", "note": "[AB00053825_07]", "values": [
      {"measurement": "pIC50", "result": 5.51}
    ]},
    {"smiles": "COc1cccc2c1C(=O)c1c(O)c3c(c(O)c1C2=O)C[C@@](O)(C(C)=O)C[C@@H]3O[C@H]1C[C@H](N)[C@H](O)[C@H](C)O1", "note": "[(7S,9S)-9-acetyl-7-[(2R,4S,5S,6S)-4-amino-5-hydroxy-6-methyloxan-2-yl]oxy-6,9,11-trihydroxy-4-methoxy-8,10-dihydro-7H-tetracene-5,12-dione;hydrochloride]", "values": [
      {"measurement": "pIC50", "result": 5.36}
    ]}
  ]
}
